The IC50 is the concentration at which inhibition is half-maximal.

Here are results for 39 compounds from the Kinase Knowledgebase extract (Sharma et al. 2016).

The target of this test is CDK2 (UniProt P24941). In words: Enzyme Assay.
The compound `O=C(Nc1c[nH]nc1C(=O)Nc1ccc(F)cc1)c1ccccc1OCCN1CCCC1` yielded an IC50 of under 20 µM. The same measure for `CC1(C(=O)Nc2c[nH]nc2C(=O)Nc2ccc(F)cc2)CC1`: under 20 µM; for `Cc1nc[nH]c1-c1c[nH]nc1C(=O)Nc1ccc(F)cc1`: under 20 µM. Consider `O=C(Nc1ccccc1)c1n[nH]cc1-c1cccc(CO)c1`, for which the half-maximal inhibitory concentration (IC50) was under 20 µM.

In turn, `O=C(Nc1ccc(F)cc1)c1n[nH]cc1N1CCOCC1` showed an IC50 of under 20 µM.

`COc1ccc(CNC(=O)c2n[nH]cc2NC(=O)c2c(F)cccc2F)cc1` showed a half-maximal inhibitory concentration (IC50) of under 20 µM. As to `Cc1ccccc1C(=O)Nc1c[nH]nc1C(=O)Nc1ccc(F)cc1`, the 50% inhibitory concentration (IC50) is under 20 µM. The same measure for `O=C(NC1CCN(Cc2ccccc2)C1)c1n[nH]cc1NC(=O)c1c(F)cccc1F` (centres undefined): under 20 µM. In turn, `O=C1CCC(C(=O)Nc2c[nH]nc2C(=O)Nc2ccc(F)cc2)N1` (centres undefined) returned an IC50 of under 20 µM. `O=C(CCc1ccc(Cl)cc1)Nc1c[nH]nc1C(=O)Nc1ccc(F)cc1`: the IC50 is under 20 µM. The same measure for `COc1ccc(NC(=O)c2n[nH]cc2-c2ccccc2)cn1`: under 20 µM. Consider `O=C(NCc1c(Cl)cccc1Cl)c1n[nH]cc1NC(=O)c1c(F)cccc1F`, for which the IC50 is under 750 µM. For `O=C(NC1CCCC1)c1n[nH]cc1NC(=O)c1c(F)cccc1F`, the half-inhibitory concentration (IC50) is under 20 µM.

In turn, `NC(=O)c1n[nH]cc1NC(=O)c1c(F)cccc1F` registered an IC50 of under 20 µM.

Turning to `CN1CCN(CCC(=O)Nc2c[nH]nc2C(=O)Nc2ccc(F)cc2)CC1`, the IC50 is under 20 µM. Next, `O=C(CCO)Nc1c[nH]nc1C(=O)Nc1ccc(F)cc1`: under 20 µM; `O=C(NCC1CCCCC1)c1n[nH]cc1NC(=O)c1c(F)cccc1F`: under 20 µM; `CN1CCN(c2c[nH]nc2C(=O)Nc2ccc(F)cc2)CC1`: under 20 µM.

On to `O=C(CCN1CCOCC1)Nc1c[nH]nc1C(=O)Nc1ccc(F)cc1`, for which the 50% inhibitory concentration (IC50) was under 20 µM. `CCC(CC)Nc1c[nH]nc1C(=O)Nc1ccc(F)cc1` yielded an IC50 of under 20 µM.

In the case of `O=C(Nc1c[nH]nc1C(=O)Nc1ccc(F)cc1)c1cccc([N+](=O)[O-])c1`, the half-inhibitory concentration (IC50) was under 20 µM.

In turn, `O=C(Nc1c[nH]nc1C(=O)Nc1ccc(F)cc1)c1ccc2ccccc2n1` came in with a 50% inhibitory concentration (IC50) of under 20 µM. The same measure for `O=C(Nc1cc(F)ccc1OCCN1CCCC1)c1n[nH]cc1NC(=O)c1c(F)cccc1F`: under 20 µM. As for `Cc1ccoc1C(=O)Nc1c[nH]nc1C(=O)Nc1ccc(F)cc1`, the IC50 is under 20 µM. The same measure for `O=C(Nc1c[nH]nc1C(=O)Nc1ccc(F)cc1)c1cccc(F)c1`: under 20 µM. The compound `O=C(Nc1ccc(F)cc1)c1n[nH]cc1Nc1cnccn1` returned a 50% inhibitory concentration (IC50) of under 20 µM. In the case of `Cc1cccc(C(=O)Nc2c[nH]nc2C(=O)Nc2ccc(F)cc2)c1`, the IC50 is under 20 µM. Next, `CNS(=O)(=O)Cc1ccc(CNC(=O)c2n[nH]cc2-c2ccc(Cl)cc2Cl)cc1`: under 20 µM; `O=C(Nc1c[nH]nc1C(=O)Nc1ccc(F)cc1)c1ccc(CO)cc1`: under 20 µM. The same measure for `O=C(NC1CCN(Cc2ccccc2)CC1)c1n[nH]cc1NC(=O)c1c(F)cccc1F`: under 20 µM; for `O=C(Nc1c[nH]nc1C(=O)Nc1ccc(F)cc1)c1ccccc1O`: under 20 µM; for `O=C(NC1CCC(C(=O)O)CC1)c1n[nH]cc1NC(=O)c1c(F)cccc1F` (centres undefined): under 20 µM. The same measure for `O=C(CS(=O)(=O)c1ccccc1)Nc1c[nH]nc1C(=O)Nc1ccc(F)cc1`: under 20 µM; for `O=C(Nc1c[nH]nc1C(=O)Nc1ccc(F)cc1)c1ccc([N+](=O)[O-])cc1`: under 20 µM. Compound `O=C(NCc1ccccn1)c1n[nH]cc1NC(=O)c1c(F)cccc1F` showed an IC50 of under 20 µM.

Consider `CN1CCN(c2ccc(CNC(=O)c3n[nH]cc3-c3cccc(O)c3)cc2)CC1`, for which the half-maximal inhibitory concentration (IC50) is under 20 µM. As to `O=C(Nc1c[nH]nc1C(=O)Nc1ccc(F)cc1)c1ccccc1F`, the half-maximal inhibitory concentration (IC50) is under 20 µM.

`O=C(CCN1CCCCC1)Nc1c[nH]nc1C(=O)Nc1ccc(F)cc1` displayed an IC50 of under 20 µM. The same measure for `CC(C)(C)C(=O)Nc1c[nH]nc1C(=O)Nc1ccc(F)cc1`: under 20 µM.
